Legend:
[1] = test system: Streptococcus pneumoniae CMCC 31203; test: in vivo antibacterial test, survival of infected mice; parameters: species or system BALB/c mice; settings: mice infected i.p. with Streptococcus pneumoniae; 5 mg per kg subcutaneous for 3 consecutive days; observed until the seventh day
[2] = test system: Haemophilus parasuis; test: in vitro susceptibility, MIC by mini broth dilution; type: cell-based
In short: (§1)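 Following the NCCLS standard, each compound is serially halved in DMSO to give 11 concentrations, run in duplicate alongside a control well. Inocula come from colonies grown 20 h at 35° C and are diluted 1:200 into broth; MIC is taken by mini broth dilution.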

[3] = test system: Pasteurella multocida CVCC399; test: as above; type: cell-based; settings: strain CVCC399
In short: as §1

[4] = test system: Streptococcus equines CVCC556; test: as above; type: cell-based; settings: strain CVCC556
In short: as §1

[5] = test system: Actinobacillus pleuropneumoniae CVCC262; test: as above; type: cell-based; settings: strain CVCC262
In short: as §1

[6] = test system: Staphylococcus aureus CVCC26003; test: as above; type: cell-based; settings: strain CVCC26003
In short: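 MICs were determined by mini broth dilution under NCCLS standards in CAMHB, using revived S. aureus CVCC26003 subcultured 20 h at 35° C. Compounds were two-fold serially diluted in DMSO across 11 wells, with duplicate rows. Bacterial suspension was diluted 1:200 in medium before inoculation.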

[7] = acute oral toxicity test, LD50 by improved karber method; settings: for LD50: per os, gavaged once, in 0.2% sodium carboxymethylcellulose, observed 7 days; for LD50 at 7 days: both, Konmin, mouse, in vivo, po
[8] = acute toxicity test, single gastric perfusion; type: in vivo, Balb/c mice; settings: 2000 mg/kg once by gastric perfusion, 85 mg/ml suspension; deaths after 6 h
From the text: The marked parts of mice in the Syzx-24 group were respectively left hinder limbs (female), necks (female), right hinder limbs (male), and necks (male). The mice in the solvent control group were not marked.

For `CCCNC[C@]1(O)[C@H](C)O[C@@H](O[C@H]2[C@H](C)[C@@H](O[C@@H]3O[C@H](C)C[C@H](N(C)C)[C@H]3O)[C@](C)(O)C[C@@H](C)N(CCC)C[C@H](C)[C@@H](O)[C@](C)(O)[C@@H](CC)OC(=O)[C@@H]2C)C[C@@]1(C)OC` [syzx-101, (2R,3S,4R,5S,8R,10R,11R,12S,13S,14R)-13-[(2,6-dideoxy-3-C-methyl-3-O-methyl-4-C-[(n-propylamino)-methyl]-α-L-ribopyranosyl)oxy]-2-ethyl-3,4,10-trihydroxy-3,5,8,10,12,14-hexamethyl-7-propyl-11-[[3,4,6-trideoxy-3-(dimethylamino)-β-D-xylo-hexopyranosy]oxy]-1-oxa-7-azacyclopentadecan-15-one], the Animal survival rate [1] was 90%, the “Animal survival rate (surviving/total animals)” value [1] was 9/10 and the “MIC values, Haemophilus parasuis” value [2] was 0.125 ug/mi. The “MIC values, Pasteurella multocida CVCC399” value [3] was 0.125 ug/mi, the “MIC values, Streptococcus equines CVCC556” value [4] was 0.125 ug/mi and the “MIC values, Actinobacillus pleuropneumoniae CVCC262” value [5] was 0.125 ug/mi. For the same compound, the “MIC values, Staphylococcus aureus CVCC26003” value [6] was 0.125 ug/mi and the LD50 [7] was 3760.6 mg/kg.

For `CC[C@@H]1OC(=O)[C@H](C)[C@H](OC2C[C@@](C)(OC)[C@](O)(CNC(C)(C)C)[C@H](C)O2)[C@@H](C)[C@@H](O[C@@H]2O[C@H](C)C[C@H](N(C)C)[C@H]2O)[C@](C)(O)C[C@@H](C)NC[C@@H](C)[C@H](O)[C@]1(C)O` (some centres unmarked) [syzx-14], the “Animal survival rate (surviving/total animals)” value [1] was 8/10 and the LD50 at 7 days [7] was 2590 mg/kg.

With `CC[C@H]1OC(=O)[C@H](C)[C@@H](O[C@H]2C[C@@](C)(OC)[C@](O)(CN(C)C)[C@H](C)O2)[C@H](C)[C@@H](O[C@@H]2O[C@H](C)C[C@H](N(C)C)[C@H]2O)[C@](C)(O)C[C@@H](C)NC[C@H](C)[C@@H](O)[C@]1(C)O` [Syzx-24] the Death rate [8] was 0%, the “Number of dead animals/total number of animals” value [8] was 0/4 and the “MIC values, Haemophilus parasuis” value [2] was 0.5 ug/mi. The “MIC values, Pasteurella multocida CVCC399” value [3] was 0.25 ug/mi, the “MIC values, Streptococcus equines CVCC556” value [4] was 0.25 ug/mi and the “MIC values, Actinobacillus pleuropneumoniae CVCC262” value [5] was 0.25 ug/mi. The “MIC values, Staphylococcus aureus CVCC26003” value [6] was 0.5 ug/mi.

For `CC[C@@H]1OC(=O)[C@H](C)[C@H](OC2C[C@@](C)(OC)[C@](O)(CNCCOC)[C@H](C)O2)[C@@H](C)[C@@H](O[C@@H]2O[C@H](C)C[C@H](N(C)C)[C@H]2O)[C@](C)(O)C[C@@H](C)NC[C@@H](C)[C@H](O)[C@]1(C)O` (some centres unmarked) [syzx-58], the “Animal survival rate (surviving/total animals)” value [1] was 8/10 and the LD50 at 7 days [7] was 3550 mg/kg.

With `CC[C@@H]1OC(=O)[C@H](C)[C@H](OC2C[C@@](C)(OC)[C@](O)(CNCC(C)C)[C@H](C)O2)[C@@H](C)[C@@H](O[C@@H]2O[C@H](C)C[C@H](N(C)C)[C@H]2O)[C@](C)(O)C[C@@H](C)NC[C@@H](C)[C@H](O)[C@]1(C)O` (stereo partly drawn) [syzx-12, (2R,3S,4R,5S,8R,10R,11R,12S,13S,14R)-13-[(2,6-dideoxy-3-C-methyl-3-O-methyl-4-C-[(isobutylamino)methyl]-α-L-ribopyranosyl)oxy]-2-ethyl-3,4,10-trihydroxy-3,5,8,10,12,14-hexamethyl-11-[[3,4,6-trideoxy-3-(dimethylamino)-β-D-xylo-hexopyranosy]oxy]-1-oxa-7-azacyclopentadecan-15-one] the “Animal survival rate (surviving/total animals)” value [1] was 8/10 and the LD50 at 7 days [7] was 4310 mg/kg.

For `CC[C@@H]1OC(=O)[C@H](C)[C@H](OC2C[C@@](C)(OC)[C@](O)(CNC(C)C)[C@H](C)O2)[C@@H](C)[C@@H](O[C@@H]2O[C@H](C)C[C@H](N(C)C)[C@H]2O)[C@](C)(O)C[C@@H](C)NC[C@@H](C)[C@H](O)[C@]1(C)O` (stereo partly drawn) [syzx-11, (2R,3S,4R,5S,8R,10R,11R,12S,13S,14R)-13-[(2,6-dideoxy-3-C-methyl-3-O-methyl-4-C-[(isopropylamino)methyl]-α-L-ribopyranosyl)oxy]-2-ethyl-3,4,10-trihydroxy-3,5,8,10,12,14-hexamethyl-11-[[3,4,6-trideoxy-3-(dimethylamino)-β-D-xylo-hexopyranosy]oxy]-1-oxa-7-azacyclopentadecan-15-one], the “Animal survival rate (surviving/total animals)” value [1] was 8/10 and the LD50 at 7 days [7] was 4200 mg/kg.

With `CC[C@@H]1OC(=O)[C@H](C)[C@H](OC2C[C@@](C)(OC)[C@](O)(CNCC3CC3)[C@H](C)O2)[C@@H](C)[C@@H](O[C@@H]2O[C@H](C)C[C@H](N(C)C)[C@H]2O)[C@](C)(O)C[C@@H](C)NC[C@@H](C)[C@H](O)[C@]1(C)O` (stereo partly drawn) [syzx-17, (2R,3S,4R,5S,8R,10R,11R,12S,13S,14R)-13-[(2,6-dideoxy-3-C-methyl-3-O-methyl-4-C-[(cyclopropylmethylamino)methyl]-α-L-ribopyranosyl)oxy]-2-ethyl-3,4,10-trihydroxy-3,5,8,10,12,14-hexamethyl-11-[[3,4,6-trideoxy-3-(dimethylamino)-β-D-xylo-hexopyranosy]oxy]-1-oxa-7-azacyclopentadecan-15-one] the “Animal survival rate (surviving/total animals)” value [1] was 8/10 and the LD50 at 7 days [7] was 2670 mg/kg.

In the case of `CC[C@@H]1OC(=O)[C@H](C)[C@H](OC2C[C@@](C)(OC)[C@](O)(CNC3CC3)[C@H](C)O2)[C@@H](C)[C@@H](O[C@@H]2O[C@H](C)C[C@H](N(C)C)[C@H]2O)[C@](C)(O)C[C@@H](C)NC[C@@H](C)[C@H](O)[C@]1(C)O` (stereo partly drawn) [syzx-6, (2R,3S,4R,5S,8R,10R,11R,12S,13S,14R)-13-[(2,6-dideoxy-3-C-methyl-3-O-methyl-4-C-[(cyclopropylamino)methyl]-α-L-ribopyranosyl)oxy]-2-ethyl-3,4,10-trihydroxy-3,5,8,10,12,14-hexamethyl-11-[[3,4,6-trideoxy-3-(dimethylamino)-β-D-xylo-hexopyranosy]oxy]-1-oxa-7-azacyclopentadecan-15-one], the “Animal survival rate (surviving/total animals)” value [1] is reported as 8/10 and the LD50 at 7 days [7] is reported as 2610 mg/kg.

With `CC[C@@H]1OC(=O)[C@H](C)[C@H](OC2C[C@@](C)(OC)[C@](O)(CN(CC)CC)[C@H](C)O2)[C@@H](C)[C@@H](O[C@@H]2O[C@H](C)C[C@H](N(C)C)[C@H]2O)[C@](C)(O)C[C@@H](C)NC[C@@H](C)[C@H](O)[C@]1(C)O` (stereo partly drawn) [syzx-3, (2R,3S,4R,5S,8R,10R,11R,12S,13S,14R)-13-[(2,6-dideoxy-3-C-methyl-3-O-methyl-4-C-[(diethylamino)methyl]-α-L-ribopyranosyl)oxy]-2-ethyl-3,4,10-trihydroxy-3,5,8,10,12,14-hexamethyl-11-[[3,4,6-trideoxy-3-(dimethylamino)-β-D-xylo-hexopyranosy]oxy]-1-oxa-7-azacyclopentadecan-15-one] the “Animal survival rate (surviving/total animals)” value [1] was 8/10 and the LD50 at 7 days [7] was 2490 mg/kg.

For `CCCCNC[C@]1(O)[C@H](C)OC(O[C@@H]2[C@@H](C)[C@@H](O[C@@H]3O[C@H](C)C[C@H](N(C)C)[C@H]3O)[C@](C)(O)C[C@@H](C)NC[C@@H](C)[C@H](O)[C@](C)(O)[C@H](CC)OC(=O)[C@@H]2C)C[C@@]1(C)OC` (stereo partly drawn) [syzx-2, (2R,3S,4R,5S,8R,10R,11R,12S,13S,14R)-13-[(2,6-dideoxy-3-C-methyl-3-O-methyl-4-C-[(butylamino)methyl]-α-L-ribopyranosyl)oxy]-2-ethyl-3,4,10-trihydroxy-3,5,8,10,12,14-hexamethyl-11-[[3,4,6-trideoxy-3-(dimethylamino)-β-D-xylo-hexopyranosy]oxy]-1-oxa-7-azacyclopentadecan-15-one], the “Animal survival rate (surviving/total animals)” value [1] was 8/10 and the LD50 at 7 days [7] was 2550 mg/kg.

For `CCNC[C@]1(O)[C@H](C)OC(O[C@@H]2[C@@H](C)[C@@H](O[C@@H]3O[C@H](C)C[C@H](N(C)C)[C@H]3O)[C@](C)(O)C[C@@H](C)NC[C@@H](C)[C@H](O)[C@](C)(O)[C@H](CC)OC(=O)[C@@H]2C)C[C@@]1(C)OC` (stereo partly drawn) [syzx-10, (2R,3S,4R,5S,8R,10R,11R,12S,13S,14R)-13-[(2,6-dideoxy-3-C-methyl-3-O-methyl-4-C-[(ethylamino)methyl]-α-L-ribopyranosyl)oxy]-2-ethyl-3,4,10-trihydroxy-3,5,8,10,12,14-hexamethyl-11-[[3,4,6-trideoxy-3-(dimethylamino)-β-D-xylo-hexopyranosy]oxy]-1-oxa-7-azacyclopentadecan-15-one], the “Animal survival rate (surviving/total animals)” value [1] was 9/10 and the LD50 at 7 days [7] was 2810 mg/kg.

In the case of `CCCNC[C@]1(O)[C@H](C)O[C@@H](O[C@H]2[C@H](C)[C@@H](O[C@@H]3O[C@H](C)C[C@H](N(C)C)[C@H]3O)[C@](C)(O)C[C@@H](C)NC[C@H](C)[C@@H](O)[C@](C)(O)[C@@H](CC)OC(=O)[C@@H]2C)C[C@@]1(C)OC` [syzx-1, (2R,3S,4R,5S,8R,10R,11R,12S,13S,14R)-13-[(2,6-dideoxy-3-C-methyl-3-O-methyl-4-C-[(propylamino)methyl]-α-L-ribopyranosyl)oxy]-2-ethyl-3,4,10-trihydroxy-3,5,8,10,12,14-hexamethyl-11-[[3,4,6-trideoxy-3-(dimethylamino)-β-D-xylo-hexopyranosy]oxy]-1-oxa-7-azacyclopentadecan-15-one], the Animal survival rate [1] is reported as 80%, the “Animal survival rate (surviving/total animals)” value [1] is reported as 8/10 and the “MIC values, Haemophilus parasuis” value [2] is reported as 0.125 ug/mi. The “MIC values, Pasteurella multocida CVCC399” value [3] was 1 ug/mi, the “MIC values, Streptococcus equines CVCC556” value [4] was 0.125 ug/mi and the “MIC values, Actinobacillus pleuropneumoniae CVCC262” value [5] was 0.125 ug/mi. For the same compound, the “MIC values, Staphylococcus aureus CVCC26003” value [6] was 0.125 ug/mi and the LD50 [7] was 2584.8 mg/kg.

Source: patent US9765105B2, “Macrolide compound” (Pulike Biological Engineering, Inc., priority 2013, dated 2017)
